Results as given in patent publication US6951651B2, “CTL epitope analogs” (priority 1999, dated 2005).
Where two headings read alike, the source gives them in different places. Ends that are not written are not given here.

Experiments:
[1] = tested on: T cell clones from HLA A*0201 individuals seropositive for HCMV; settings: for T cell clones giving greater specific cytotoxicity at a lower concentration than the native sequence: five T cell clones, EBVLCL targets sensitized at 5.0 or 0.5 nM; for recognition by T cell clones other than 3-3F4: four additional T cell clones from different HCMV-seropositive volunteers, up to 5 nM
Procedure: Chromium release assays were performed according to the methods of (20). Briefly, target cell lines (antigen presenting cells which present pp65495-503) were labeled for one hour with 200 μCi/ml ^51Cr (ICN™, Costa Mesa, Calif.). HCMV infected targets were prepared as follows. Five-hundred thousand fibroblasts were pretreated with 800 U/10^6 recombinant IFN-γ, (Preprotech™, Rocky Hill, N.J.) to upregulate MHC class I expression and HCMV was added at an m.o.i. of 4. Cells were incubated with virus for two hours at 37° C., in a 5% CO2 incubator. Fresh FBM containing IFN-γ was then added and the cells incubated for an additional 14 hours. Infected fibroblasts were trypsinized, labeled with ^51Cr as described above and used in the assay at an effector-to-target ratio (E/T) of 50 and 10. Epstein-Barr virus transformed B cell lines (EBVLCL) were generated following standard technology using the supernatant of EBV-infected marmoset cells. EBVLCL were grown in medium consisting of RPMI-1640 (Gibco™, Rockville, Md.) supplemented with 10% FBS, 10 mM Hepes Buffer Solution (Irvine Scientific™, Santa Ana, Calif.), penicillin, streptomycin and L-glutamine as described for fibroblast medium. The cells used as targets were prepared by pulsing with […] pp65495-503 peptide, and used at an E/T of 25 and 5. For PS-SCL screening and titration of analog peptides, T2 cells, maintained as described in Diamond et al., Blood 90:1751-1767 (1997), were pulsed with serial peptide dilutions for use as targets for T cell clone effectors at an E/T of 5.
(§1) In the assay, loaded targets and effectors were mixed in culture and incubated for four hours, at which time chromium release was measured. Supernatants were collected on filter frames (Skatron™, Oslo, Norway) and radioactivity determined in a Cobra II gamma counter (Packard™, Meriden, Conn.). For each assay, spontaneous release from the target cells in the absence of effector CTL and maximum possible release after treatment with 2% SDS (Baker Chemicals™, Phillipsburg, N.J.) was determined. Specific cytotoxicity was defined as: 100×[(Re−Rs)/Max−Rs)], where Re=experimental release, and Rs=spontaneous release.
The T cell clones were stimulated in vitro with the native sequence of pp65495-503 (SEQ ID NO:1) as described in Example 2.

T cell clone 3-3F4 [2] = assay: Flow-cytometric HLA A2-Ig dimer binding to T cell clone 3-3F4; design: species or system human; settings: specific fluorescence, peptide-loaded HLA A2-Ig dimers
Procedure: HLA A2-Ig dimer aliquots were individually loaded with a series of peptides, and incubated with two different T cell clones, 3-3F4 and VB57. The soluble HLA-A2-Ig complexes (HLA dimers) were loaded with peptide according to the methods of Greten et al., Proc. Natl. Acad. Sci. USA 95:7568-7573 (1998). For each peptide analog to be tested, 10 μg of HLA dimers in 10 μl PBS containing 0.02% NaN3 (Baker Chemical™, Phillipsburg, N.J.) was incubated for three days at 4° C. with 660-fold molar excess peptide. Dimers also were loaded with the pp65495-503 native peptide, an irrelevant peptide (pp54 B*0702 epitope), and 2 μl PBS buffer containing 0.02% NaN3, in all experiments to serve as controls. One microgram aliquots of peptide loaded dimers were mixed with 0.2 million of either T cell clone 3-3F4 or VB57 for 75 minutes on ice. Cells were washed in PBS containing 2% FBS and 0.02% NaN3 (WB), and subsequently stained with 0.9 μl/sample of goat anti-mouse IgG1-PE (Caltag™, Burlingame, Calif.). After two additional washings in WB, cells were analyzed by fluorescence-activated cell sorting (FACSCalibur™). Specific fluorescence was calculated as fluorescence ratio between the mean fluorescence of the peptide-loaded diners and the mean fluorescence of the buffer-loaded control diners. Peptides names ending in N are amidated, while those ending in C are free acids. Each peptide-loaded diner complex was tested at least twice with two different T cell clones (3-3F4 and VB57). The fluorescence indices indicated in the Figure are an average of both experiments.

HLA A*0201 = target: T1, HLA A*0201 (Homo sapiens, UniProt P04439, D140Y/D185E/D98H/E176V/E277Q/G131W/G231S/I119V/I121R/I166T/I218V/L300P/L318F/N151K/N90K/P208A/P217A/Q86G/Q94H/R138H/R169H/T345S); assay: T2 assembly assay (MHC binding affinity); settings: for difference between acid and amide forms in binding to HLA A*0201: T2 assembly assay; for MHC affinity (fluorescence ratio) by T2 assembly assay: T2 cells, 100 μM peptide overnight, mAb BB7.2
T1 construct: endogenous in cells; host or cells: T2 cells (TAP-deficient); β2-microglobulin purchased from Sigma, catalogue number not given
Procedure: See the methods of Nijman et al., Eur. J. Immunol. 23:1215-1219 (1993).
For each analog to be tested, 250,000 T2 cells were washed twice and resuspended in serum free IMDM and incubated overnight with 100 μM peptide together with 15 μg/ml human β2-microglobulin (Sigma™, Lt. Louis, Mo.) at 37° C. in a 5% CO2 incubator. […] After washing twice with cold buffer, FITC-conjugated rat anti-mouse IgG2a/2b (1:40 dilution; Pharmingen™, San Diego, Calif.) was added and incubated for another 30 minutes at 4° C. The cells were washed twice in cold buffer, and mean fluorescence intensity (MFI) of 10^4 gated cells was measured using a FACSCalibur™.
Fluorescence ratio is defined as mean fluorescence with peptide/mean fluorescence without peptide. Results for the amidated peptides indicate only slight changes in MHC binding.

T cell clone 3-3F4 [3] = assay: Chromium release assay, peptide-sensitized targets lysed by T cell clone 3-3F4; assay type: cell-based, human; settings: for Conc. (nM): concentration of peptide in which specific killing was between 15 and 30 percent: HLA A*0201-restricted EBVLCL targets, 3-3F4 effectors, E:T=5, 10-fold dilutions 500-0.00005 nM; for recognition by T cell clone 3-3F4 (in words): chromium release assay; for Peptide Concentration (nM), Amide, 3-3F4: carboxyl terminal amide peptide; for Peptide Concentration (nM), Amide, 3-3F4 / Peptide Concentration (nM), Free Acid, 3-3F4: chromium release, T cell clone 3-3F4
Procedure: Nonamer peptides with the substitutions as shown at each position were synthesized as described in Example 1. […] Results of these assays are shown in the right-hand column of Table II, in terms of concentration of peptide (nM) in which specific killing was between 15 and 30 percent. Results presented are the average from at least three independent experiments carried out on different days using different batches of T cell […]. Peptides were tested using 10-fold dilutions, ranging from 500-0.00005 nM.
(§2) To take advantage of the increased immunogenicity of peptides 44 and 46, while maintaining the universal recognition of the native peptide, library-directed changes were made to peptides 44 and 46, substituting back the native amino acids. A series of 21 peptides were constructed based upon the sequence of the tetra-substituted peptides 44 and 46 in each of the carboxyl terminal amidated and free acid forms. The peptides contained single, double, or triple substitutions of amino acids of the native sequence at the positions indicated. These peptides were assayed utilizing a standard chromium release assay with the screening T cell clone, 3-3F4, and a representative T cell clone (VB57) from another individual expressing a different T cell receptor.

[4] = tested on: peripheral blood CTL of HCMV-seropositive HLA A*0201 donors; assay type: cell-based, human; settings: amidated peptides
Procedure: Sixteen to twenty-four million of the ficoll-separated peripheral blood mononuclear cells were incubated 2-3 hours at 37° C. in a 5% CO2 incubator with 100 μM HCMV PP65495-503 peptide (SEQ ID NO: 1) in a volume of 100 μl of T cell culture medium (IVSTCM). IVSTCM consists of RPMI-1640 supplemented with 20% heat inactivated HAB serum, 10 IU/ml r-IL2 (Chiron™, Emeryville, Calif.); 25 mM Hepes Buffer Solution, 50 U/ml penicillin, 50 μg/ml streptomycin, 2 mM L-glutamine and 0.5 mM sodium pyruvate (Gibco™, Rockville, Md.). […] After the incubation period, the cells, now presenting pp65495-503 were resuspended in 2 ml IVSTCM, and γ-irradiated (2,400 rads) using the Isomedic Model 19 Gammator (Nuclear Canada, Parsippany, N.J.).
During the peptide incorporation procedure, an additional aliquot of 10-20 million cells from the same freshly separated peripheral blood mononuclear cells was depleted of CD4^+, CD16^+ and CD56^+ cells as follows. […] The resulting population was >80% CD8^+ as determined using a FAGSCalbur™ fluorescence activated cell sorter (BD Immunocytomeyry Systems™, Palo Alto, Calif.). […]
Peripheral blood from separate individuals was stimulated with peptides 115, 118, and 193 and subjected to a chromium release assay. […] Lymphocytes from three individuals were used for all four peptides, including SEQ ID NO:1, and one individual was evaluated with 193 peptide and the positive control.

T cell clone VB57 = assay: Chromium release assay, peptide-sensitized targets lysed by T cell clone VB57; assay type: cell-based, human; settings: for Peptide Concentration (nM), Amide, VB57: carboxyl terminal amide peptide
Description: as §2

T cell clone 3-3F4 [5] = assay: PS-SCL screen and simultaneous native peptide titration, T2 cells, T cell clone 3-3F4; assay type: cell-based, human; settings: E:T 5, read-out: concentration sensitizing 50% maximal lysis of T2 cells by 3-3F4
Procedure: Chromium release assays were performed according to the methods of (20). Briefly, target cell lines (antigen presenting cells which present pp65495-503) were labeled for one hour with 200 μCi/ml ^51Cr (ICN™, Costa Mesa, Calif.). HCMV infected targets were prepared as follows. Five-hundred thousand fibroblasts were pretreated with 800 U/10^6 recombinant IFN-γ, (Preprotech™, Rocky Hill, N.J.) to upregulate MHC class I expression and HCMV was added at an m.o.i. of 4. Cells were incubated with virus for two hours at 37° C., in a 5% CO2 incubator. Fresh FBM containing IFN-γ was then added and the cells incubated for an additional 14 hours. Infected fibroblasts were trypsinized, labeled with ^51Cr as described above and used in the assay at an effector-to-target ratio (E/T) of 50 and 10. […]
as §1, with “Specific cytotoxicity was defined as: 100×[(Re−Rs)/Max−Rs)], where Re=experimental release, and Rs=spontaneous release.” left out

Substance	Peptide Concentration (nM), Amide, VB57 (T cell clone VB57) [nM]	Peptide Concentration (nM), Amide, 3-3F4 (T cell clone 3-3F4 [3]) [nM]	Peptide Concentration (nM), Free Acid, VB57 (T cell clone VB57) [nM]	Peptide Concentration (nM), Free Acid, 3-3F4 (T cell clone 3-3F4 [3]) [nM]	other results
YLVPMVATV-NH2 [Peptide 193N]					T cell clones giving greater specific cytotoxicity at a lower concentration than the native sequence [1]: two out of five
YLVPMVASV-NH2 [Peptide 115N]					T cell clones giving greater specific cytotoxicity at a lower concentration than the native sequence [1]: two out of five
YLLPMVVSV-NH2 [Peptide 44N]					HLA-Ig dimer binding to T cell clone 3-3F4 (T cell clone 3-3F4 [2]): poor binders; difference between acid and amide forms in binding to HLA A*0201 (HLA A*0201): substantial binding differences; MHC affinity (fluorescence ratio) by T2 assembly assay (HLA A*0201): not dramatically different from the native sequence; Conc. (nM): concentration of peptide in which specific killing was between 15 and 30 percent (T cell clone 3-3F4 [3]): 0.00005 nM; recognition by T cell clone 3-3F4 (in words) (T cell clone 3-3F4 [3]): better recognized than the native epitope sequence; recognition by T cell clones other than 3-3F4 [1]: No T cell clone other than 3-3F4 recognized; recognition by T cell clones other than 3-3F4 ([1]; listed as 44): not recognized by any of the T cell clones in the cohort; recognition by individuals' peripheral blood T cells after in vitro stimulation with the peptide [4]: only T cells from the individual from whom the PS-SCL screen clone was derived showed any positive response
YLLPMVTSV-NH2 [Peptide 46N]					HLA-Ig dimer binding to T cell clone 3-3F4 (T cell clone 3-3F4 [2]): poor binders; difference between acid and amide forms in binding to HLA A*0201 (HLA A*0201): substantial binding differences; MHC affinity (fluorescence ratio) by T2 assembly assay (HLA A*0201): not dramatically different from the native sequence; Conc. (nM): concentration of peptide in which specific killing was between 15 and 30 percent (T cell clone 3-3F4 [3]): 0.0005 nM; recognition by T cell clone 3-3F4 (in words) (T cell clone 3-3F4 [3]): better recognized than the native epitope sequence; recognition by T cell clones other than 3-3F4 [1]: No T cell clone other than 3-3F4 recognized; recognition by T cell clones other than 3-3F4 ([1]; listed as 46): not recognized by any of the T cell clones in the cohort; recognition by individuals' peripheral blood T cells after in vitro stimulation with the peptide [4]: only T cells from the individual from whom the PS-SCL screen clone was derived showed any positive response
123N: nonamer YLLPMVASV amide, SEQ ID NO 77 (YLLPMVASV-NH2) [Peptide 123N]	0.5	0.05			
119C: nonamer NLVPMVVSV, SEQ ID NO 54 (NLVPMVVSV-OH) [Peptide 119C]			>5	>5	
194C: nonamer NLLPMVATV, SEQ ID NO 40 (NLLPMVATV-OH) [Peptide 194C]			>5	>5	
110N: nonamer NLVPMVVTV amide, SEQ ID NO 41 (NLVPMVVTV-NH2) [Peptide 110N]	>5	0.05			
113N: nonamer YLVPMVVTV amide, SEQ ID NO 59 (YLVPMVVTV-NH2) [Peptide 113N]	>5	0.5			
111C: nonamer NLVPMVTTV, SEQ ID NO 44 (HCMV vaccine peptide) [Peptide 111C]			5	0.05	recognition by T cell clone 3-3F4 (in words) (T cell clone 3-3F4 [3]): equivalent to its amidated counterpart
NLLPMVASV-NH2 [Peptide 118N]					T cell clones giving greater specific cytotoxicity at a lower concentration than the native sequence [1]: three out of five
119N: nonamer NLVPMVVSV amide, SEQ ID NO 53 (NLVPMVVSV-NH2) [Peptide 119N]	>5	0.005			
NLVPMVATV [Peptide A7C, reference compound]					HLA-Ig dimer binding to T cell clone 3-3F4 (T cell clone 3-3F4 [2]): bound well; Conc. (nM): concentration of peptide in which specific killing was between 15 and 30 percent (T cell clone 3-3F4 [3]): 0.5 nM; EC50 (T cell clone 3-3F4 [5]): 0.02 nM
112C: nonamer NLVPMVASV, SEQ ID NO 46 (NLVPMVASV-OH) [Peptide 112C]			0.5	5	
127N: nonamer NLLPMVTSV amide, SEQ ID NO 67 (NLLPMVTSV-NH2) [Peptide 127N]	>5	0.05			
127C: nonamer NLLPMVTSV, SEQ ID NO 68 (NLLPMVTSV-OH) [Peptide 127C]			>5	5	
121N: nonamer YLLPMVVTV amide, SEQ ID NO 73 (YLLPMVVTV-NH2) [Peptide 121N]	>5	5			
123C: nonamer YLLPMVASV, SEQ ID NO 78 (YLLPMVASV-OH) [Peptide 123C]			>5	>5	
